From PubChem BioAssay (NCI) come the findings set out here.

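Exposure lasted 48 hours, with cells grown in 96-well plates and compounds tested at five concentrations. GI50 is the concentration that inhibits growth by half. TGI: concentration producing complete growth inhibition.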 Bounds are passed on as bounds.

Some test systems named below: LOX IMVI melanoma; OVCAR-8 ovarian; NCI-H522 lung; MALME-3M melanoma; SF-268 CNS; NCI-H226 lung; SK-MEL-28 melanoma; MCF7 breast; NCI-H23 lung; HCT-15 colon.
What all share (assay): NCI anticancer screen, dose series, 48 h

Regarding `O=C1/C(=C\c2ccccc2)CN(C(=O)c2ccccc2)C/C1=C\c1ccccc1`, the GI50 with LOX IMVI melanoma is 1.38 µM; with OVCAR-8 ovarian it was 2.96 µM; with NCI-H522 lung, 2.29 µM; in the assay on MALME-3M melanoma, 2.96 µM; with SF-268 CNS, 3.4 µM; in the assay with NCI-H226 lung, 19.3 µM. The GI50 was 1.82 µM in the assay with SK-MEL-28 melanoma, 0.39 µM in the assay on MCF7 breast, 3.62 µM with NCI-H23 lung and 2.02 µM in the assay with HCT-15 colon. The TGI in the assay on LOX IMVI melanoma is 2.89 µM; in the assay with OVCAR-8 ovarian, 11.1 µM; in the assay with NCI-H522 lung, 5.27 µM; with MALME-3M melanoma it was 7.17 µM; in the assay with SF-268 CNS, 14.8 µM; with NCI-H226 lung, greater than 100 µM. Further, the TGI was determined as 3.47 µM in the assay on SK-MEL-28 melanoma, 1.69 µM in the assay with MCF7 breast, 12.4 µM in the assay on NCI-H23 lung and 5.9 µM in the assay on HCT-15 colon.
As to `CCCOc1ccc(/C=N/Nc2cc(C)nc3ccc(Cl)cc23)cc1`, the GI50 with LOX IMVI melanoma is 1.7 µM; in the assay with OVCAR-8 ovarian it was 2.31 µM; in the assay on NCI-H522 lung, 1.75 µM; in the assay on MALME-3M melanoma, 1.79 µM; with SF-268 CNS, 2.24 µM; with NCI-H226 lung it was 1.69 µM. For the same compound, the GI50 with SK-MEL-28 melanoma was 1.73 µM; in the assay with MCF7 breast it was 1.67 µM; in the assay on NCI-H23 lung, 1.81 µM; in the assay with HCT-15 colon, 1.52 µM. Moreover, the TGI in the assay with LOX IMVI melanoma turned out to be 3.1 µM; in the assay with OVCAR-8 ovarian, 4.53 µM; with NCI-H522 lung it was 3.42 µM; in the assay on MALME-3M melanoma, 3.26 µM; with SF-268 CNS, 4.19 µM; in the assay on NCI-H226 lung it was 3.35 µM. Also, the TGI in the assay on SK-MEL-28 melanoma was 3.15 µM; in the assay on MCF7 breast, 3.4 µM; in the assay with NCI-H23 lung it was 3.52 µM; in the assay on HCT-15 colon, 2.94 µM.
As to `Oc1ccc(Cc2ccc(O)c(C3CC(c4ccc(Cl)cc4)=NN3)c2)cc1C1CC(c2ccc(Cl)cc2)=NN1` (stereo not given), the GI50 with LOX IMVI melanoma was 2.22 µM; in the assay on OVCAR-8 ovarian, 2.87 µM; in the assay on NCI-H522 lung, 2.56 µM; in the assay on MALME-3M melanoma, 5.03 µM; in the assay on SF-268 CNS, 3.32 µM; with NCI-H226 lung, 4.29 µM. In addition, the GI50 in the assay on SK-MEL-28 melanoma is 5.74 µM; in the assay with MCF7 breast it was 3.04 µM; in the assay on NCI-H23 lung, 3.07 µM; in the assay with HCT-15 colon, 2.26 µM. The TGI was 12 µM in the assay with LOX IMVI melanoma; greater than 42.4 µM in the assay on OVCAR-8 ovarian; 9.88 µM in the assay with NCI-H522 lung; greater than 100 µM in the assay with MALME-3M melanoma; 27.2 µM with SF-268 CNS; greater than 44.3 µM in the assay with NCI-H226 lung. In addition, the TGI with SK-MEL-28 melanoma is greater than 49.9 µM; in the assay with MCF7 breast, greater than 100 µM; with NCI-H23 lung, greater than 37.1 µM; in the assay with HCT-15 colon, greater than 35.8 µM.
As to `FC(F)(F)c1cc(-c2ncn(/C=C\c3nnco3)n2)cc(C(F)(F)F)c1`, the GI50 was 0.0902 µM with LOX IMVI melanoma; 0.0589 µM with OVCAR-8 ovarian; 0.0381 µM in the assay on NCI-H522 lung; 0.102 µM in the assay with MALME-3M melanoma; 0.0462 µM in the assay with SF-268 CNS; 0.0383 µM with NCI-H226 lung. Also, the GI50 is 0.125 µM in the assay with SK-MEL-28 melanoma, 0.0414 µM with MCF7 breast, 0.146 µM in the assay on NCI-H23 lung and 0.133 µM in the assay on HCT-15 colon. In addition, the TGI in the assay with LOX IMVI melanoma was 3.82 µM; in the assay on OVCAR-8 ovarian it was greater than 47.7 µM; with NCI-H522 lung it was 0.445 µM; in the assay on MALME-3M melanoma it was 0.734 µM; in the assay on SF-268 CNS, 10.1 µM; in the assay with NCI-H226 lung it was 23.6 µM. The TGI in the assay with SK-MEL-28 melanoma is 49.3 µM; with MCF7 breast, 2.94 µM; in the assay with NCI-H23 lung, greater than 41.4 µM; in the assay on HCT-15 colon, greater than 33.4 µM.
Consider `C=C(CN1CCN(c2ccccc2C(F)(F)F)CC1)c1ccc(C(=O)Nc2ccccc2N)cc1`, for which the GI50 was 5.86 µM with LOX IMVI melanoma; 3.84 µM with OVCAR-8 ovarian; 1.91 µM with NCI-H522 lung; 4.17 µM in the assay with MALME-3M melanoma; 4.55 µM in the assay with SF-268 CNS; 7.79 µM in the assay with NCI-H226 lung. The GI50 was 10.4 µM with SK-MEL-28 melanoma, 4.48 µM in the assay on MCF7 breast, 5.93 µM in the assay on NCI-H23 lung and 4.88 µM with HCT-15 colon. The TGI in the assay with LOX IMVI melanoma was 42.2 µM; in the assay with OVCAR-8 ovarian, greater than 100 µM; in the assay with NCI-H522 lung it was greater than 28.1 µM; in the assay on MALME-3M melanoma it was greater than 64.1 µM; in the assay on SF-268 CNS, greater than 47 µM; in the assay with NCI-H226 lung, 48.1 µM. For the same compound, the TGI is greater than 100 µM with SK-MEL-28 melanoma, 37.1 µM in the assay on MCF7 breast, greater than 100 µM in the assay with NCI-H23 lung and greater than 100 µM in the assay with HCT-15 colon.
For `O=Cc1ccc(-c2ccc(-c3ccc(C=O)o3)[se]2)o1`, the GI50 in the assay with LOX IMVI melanoma is greater than 100 µM; with OVCAR-8 ovarian it was greater than 100 µM; in the assay on NCI-H522 lung it was 16.3 µM; in the assay on MALME-3M melanoma it was greater than 100 µM; with SF-268 CNS it was greater than 95.4 µM; with NCI-H226 lung it was 41.7 µM. The GI50 with SK-MEL-28 melanoma was greater than 100 µM; in the assay on MCF7 breast it was 6.35 µM; with NCI-H23 lung, 56.3 µM; in the assay with HCT-15 colon it was greater than 80 µM. Further, the TGI in the assay with LOX IMVI melanoma is greater than 100 µM; in the assay with OVCAR-8 ovarian, greater than 100 µM; with NCI-H522 lung, 31.1 µM; in the assay on MALME-3M melanoma it was greater than 100 µM; in the assay on SF-268 CNS, greater than 100 µM; in the assay with NCI-H226 lung, greater than 100 µM. Further, the TGI with SK-MEL-28 melanoma, in the assay with MCF7 breast, with NCI-H23 lung and in the assay with HCT-15 colon was greater than 100 µM throughout.
On to `CCOc1cc(/C=C/C(=O)C(C(=O)/C=C/c2ccc(OC(=O)CNc3nnc(C)s3)c(OCC)c2)C(=O)CNc2nnc(C)s2)ccc1OC(=O)CNc1nnc(C)s1`, for which the GI50 was 0.897 µM in the assay with LOX IMVI melanoma; 3.43 µM in the assay with OVCAR-8 ovarian; 2.03 µM with NCI-H522 lung; 2.36 µM with MALME-3M melanoma; 1.36 µM in the assay with SF-268 CNS; 1.92 µM in the assay on NCI-H226 lung. The GI50 is 1.45 µM in the assay with SK-MEL-28 melanoma, 0.317 µM with MCF7 breast, 1.97 µM in the assay on NCI-H23 lung and 2.16 µM in the assay on HCT-15 colon. Moreover, the TGI with LOX IMVI melanoma amounted to 2.21 µM; in the assay on OVCAR-8 ovarian, 14.4 µM; in the assay on NCI-H522 lung, 5.71 µM; in the assay on MALME-3M melanoma, 7.09 µM; in the assay on SF-268 CNS, 4.13 µM; with NCI-H226 lung, 4.54 µM. For the same compound, the TGI was found to be 2.92 µM in the assay on SK-MEL-28 melanoma, 2.28 µM in the assay on MCF7 breast, 5.58 µM with NCI-H23 lung and 5.85 µM in the assay with HCT-15 colon.
